From patent US10239843B2 (CANCER RESEARCH TECHNOLOGY LIMITED, priority 2014, dated 2019) come the findings set out here.

One experiment concerns the target Human Full Length ARH3 (Homo sapiens (Human), UniProt Q9NX46). Briefly: ARH3 in vitro selectivity assay (TR-FRET). Type of experiment: biochemical. The note with it: read-out: ARH3 Biochem IC50.
The subject of the next experiment is PARG in HeLa cell line. Put plainly: PARG cell assay (PAR chain immunofluorescence after MMS). The note with it: HeLa cells. It counts as cell-based. The procedure, abridged:
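HeLa cells were dosed with compound for 1 h, then given MMS at 50 μg/mL final for a further hour. Cells were methanol-fixed, permeabilised and stained overnight at 4° C with anti-PAR monoclonal antibody. Retained nuclear PAR chains, detected by indirect immunofluorescence, indicate PARG inhibition.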

The target of a further experiment is Human Full Length PARG (Homo sapiens (Human), UniProt Q86W56). Put plainly: PARG enzyme assay (TR-FRET). It counts as biochemical.
Human Full Length PARG, sequence (Q86W56 whole entry): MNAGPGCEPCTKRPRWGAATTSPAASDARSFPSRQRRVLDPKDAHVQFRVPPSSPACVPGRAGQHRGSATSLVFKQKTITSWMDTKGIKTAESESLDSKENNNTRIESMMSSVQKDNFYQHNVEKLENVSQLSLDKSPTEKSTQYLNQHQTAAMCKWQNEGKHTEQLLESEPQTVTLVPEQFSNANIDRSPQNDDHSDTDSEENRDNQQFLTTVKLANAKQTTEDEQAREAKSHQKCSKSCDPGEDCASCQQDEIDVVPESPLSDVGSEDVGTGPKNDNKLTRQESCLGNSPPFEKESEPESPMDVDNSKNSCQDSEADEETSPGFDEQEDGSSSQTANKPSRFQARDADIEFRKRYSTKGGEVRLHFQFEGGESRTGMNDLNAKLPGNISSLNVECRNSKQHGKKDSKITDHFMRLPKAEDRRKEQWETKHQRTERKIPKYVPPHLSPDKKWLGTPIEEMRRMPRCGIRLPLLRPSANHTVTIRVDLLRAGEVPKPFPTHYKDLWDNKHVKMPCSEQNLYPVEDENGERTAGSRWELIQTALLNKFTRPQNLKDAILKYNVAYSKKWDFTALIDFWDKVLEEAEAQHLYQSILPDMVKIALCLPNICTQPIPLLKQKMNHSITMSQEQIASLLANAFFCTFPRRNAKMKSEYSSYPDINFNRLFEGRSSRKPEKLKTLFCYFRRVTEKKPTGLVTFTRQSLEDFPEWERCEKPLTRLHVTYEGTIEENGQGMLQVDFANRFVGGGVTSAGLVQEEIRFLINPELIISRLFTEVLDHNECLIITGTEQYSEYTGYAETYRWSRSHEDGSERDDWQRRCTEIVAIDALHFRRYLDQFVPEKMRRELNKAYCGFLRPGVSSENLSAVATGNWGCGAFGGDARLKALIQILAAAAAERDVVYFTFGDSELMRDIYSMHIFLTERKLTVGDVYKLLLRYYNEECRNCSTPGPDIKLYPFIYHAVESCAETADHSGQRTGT
The mark [1] stands for this setting: Homo sapiens, MMS treatment, read-out: PARG Cell IC50.
[2] abbreviates: Homo sapiens, MMS 50 μg/mL, read-out: PARG Cell IC50 Geomean.
[3] abbreviates: read-out: PARG Biochem IC50 Geomean.
Setting [4] is: MMS 50 μg/mL, read-out: PARG Cell IC50 Geomean.

As usually defined, the IC50 is the point on the concentration scale where inhibition reaches its midpoint.

Read-outs that look alike come from different tables or passages of the source. Some results are limits rather than exact numbers.

Human Full Length ARH3, sequence (Q9NX46 whole entry): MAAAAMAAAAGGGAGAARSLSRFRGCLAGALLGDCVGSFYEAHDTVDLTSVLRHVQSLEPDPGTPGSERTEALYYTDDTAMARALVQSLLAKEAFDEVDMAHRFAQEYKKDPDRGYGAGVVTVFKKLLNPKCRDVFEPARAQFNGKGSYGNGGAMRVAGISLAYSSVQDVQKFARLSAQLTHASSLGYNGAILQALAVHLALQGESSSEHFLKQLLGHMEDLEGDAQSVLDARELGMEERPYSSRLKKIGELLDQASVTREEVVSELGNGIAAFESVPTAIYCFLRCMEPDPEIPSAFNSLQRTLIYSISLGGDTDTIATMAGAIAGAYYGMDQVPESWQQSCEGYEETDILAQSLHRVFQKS
Description for Human Full Length ARH3: ARH3 In vitro selectivity assays were conducted in a total volume of 15 ul in a standard 384 well format.

Regarding `Cc1cc(Cn2c(=O)c3cc(S(=O)(=O)NC4(CF)CC4)ccc3n(C)c2=O)sn1` [Example 625, N-[1-(Fluoromethyl)cyclopropyl]-1-methyl-3-[(3-methylisothiazol-5-yl)methyl]-2,4-dioxo-quinazoline-6-sulfonamide], the IC50 was > 150000 nM on Human Full Length ARH3, 730 nM in the experiment with PARG in HeLa cell line (setting [1]) and 597 nM on Human Full Length PARG (read-out: PARG Biochem IC50).

With `Cc1ncsc1Cn1c(=O)n(Cc2cnn(C)c2)c(=O)c2cc(S(=O)(=O)NC3(CF)CC3)ccc21` [Example 572, N-[1-(Fluoromethyl)cyclopropyl]-3-[(1-methylpyrazol-4-yl)methyl]-1-[(4-methylthiazol-5-yl)methyl]-2,4-dioxo-quinazoline-6-sulfonamide], the IC50 at Human Full Length ARH3 was > 150000 nM; on Human Full Length PARG (read-out: PARG Biochem IC50) it was 7 nM.

For the compound `Cn1cc(Cn2c(=O)c3cc(S(=O)(=O)NC4(CF)CC4)ccc3n(Cc3ccns3)c2=O)cn1` [Example 578, N-[1-(Fluoromethyl)cyclopropyl]-1-(isothiazol-5-ylmethyl)-3-[(1-methylpyrazol-4-yl)methyl]-2,4-dioxo-quinazoline-6-sulfonamide], the IC50 at Human Full Length ARH3 was > 150000 nM; on Human Full Length PARG (read-out: PARG Biochem IC50) it was 10 nM.

With `Cc1oncc1Cn1c(=O)n(Cc2cnn(C)c2)c(=O)c2cc(S(=O)(=O)NC3(CF)CC3)ccc21` [Example 579, N-[1-(Fluoromethyl)cyclopropyl]-1-[(5-methylisoxazol-4-yl)methyl]-3-[(1-methylpyrazol-4-yl)methyl]-2,4-dioxo-quinazoline-6-sulfonamide], the IC50 at Human Full Length ARH3 is > 150000 nM; at Human Full Length PARG (read-out: PARG Biochem IC50), 9 nM.

On to `Cn1cc(Cn2c(=O)c3cc(S(=O)(=O)NC4(C)CC4)ccc3n(CC(F)F)c2=O)cn1` [Example 599, 1-(2,2-Difluoroethyl)-N-(1-methylcyclopropyl)-3-[(1-methylpyrazol-4-yl)methyl]-2,4-dioxo-quinazoline-6-sulfonamide], for which the IC50 with PARG in HeLa cell line (setting [1]) is 93 nM; at Human Full Length PARG (read-out: PARG Biochem IC50), 263 nM.

Take `Cc1cc(Cn2c(=O)n(C)c(=O)c3cc(S(=O)(=O)NC4(C)CC4)ccc32)n(C)n1` [Example 127]: the results for the IC50 in the experiment on PARG in HeLa cell line (setting [2]) and on Human Full Length PARG (setting [3]) were 413 nM and 384 nM, respectively.

As for `Cc1cc(Cn2c(=O)c3cc(S(=O)(=O)NC4(CF)CC4)ccc3n(Cc3nnc(C)o3)c2=O)on1` [Example 556, N-[1-(Fluoromethyl)cyclopropyl]-3-[(3-methylisoxazol-5-yl)methyl]-1-[(5-methyl-1,3,4-oxadiazol-2-yl)methyl]-2,4-dioxo-quinazoline-6-sulfonamide], the IC50 in the experiment with PARG in HeLa cell line (setting [1]) turned out to be 1030 nM; on Human Full Length PARG (read-out: PARG Biochem IC50), 348 nM.

For `CC(C)=CCn1c(=O)n(Cc2cnn(C)c2)c(=O)c2cc(S(=O)(=O)NC3(CF)CC3)ccc21` [Example 609, N-[1-(Fluoromethyl)cyclopropyl]-1-(3-methylbut-2-enyl)-3-[(1-methylpyrazol-4-yl)methyl]-2,4-dioxo-quinazoline-6-sulfonamide], the IC50 in the experiment on PARG in HeLa cell line (setting [1]) is 56 nM; at Human Full Length PARG (read-out: PARG Biochem IC50), 51 nM.

Turning to `Cc1nc(Cn2c(=O)n(Cc3cnn(C)c3)c(=O)c3cc(S(=O)(=O)NC4(CF)CC4)ccc32)n(C)n1` [Example 547, 1-[(2,5-Dimethyl-1,2,4-triazol-3-yl)methyl]-N-[1-(fluoromethyl)cyclopropyl]-3-[(1-methylpyrazol-4-yl)methyl]-2,4-dioxo-quinazoline-6-sulfonamide], the IC50 in the experiment with PARG in HeLa cell line (setting [1]) was 751 nM; at Human Full Length PARG (read-out: PARG Biochem IC50), 188 nM.

As to `Cc1cc(Cn2c(=O)c3cc(S(=O)(=O)NC4(CF)CC4)ccc3n(Cc3ncnn3C)c2=O)on1` [Example 557, N-[1-(Fluoromethyl)cyclopropyl]-3-[(3-methylisoxazol-5-yl)methyl]-1-[(2-methyl-1,2,4-triazol-3-yl)methyl]-2,4-dioxo-quinazoline-6-sulfonamide], the IC50 worked out at 857 nM in the experiment with PARG in HeLa cell line (setting [1]) and 368 nM on Human Full Length PARG (read-out: PARG Biochem IC50).

`Cc1cc(Cn2c(=O)c3cc(S(=O)(=O)NC4(C)CC4)ccc3n(CCCN3CCN(C)CC3)c2=O)on1` [Example 342]: the results for the IC50 with PARG in HeLa cell line (setting [2]) and at Human Full Length PARG (setting [3]) were 853 nM and 307 nM, respectively.

With `Cc1cc(Cn2c(=O)c3cc(S(=O)(=O)NC4(C)CC4)ccc3n(CC3CCN(C)CC3)c2=O)on1` [Example 371], the IC50 was found to be 1110 nM in the experiment on PARG in HeLa cell line (setting [2]) and 258 nM at Human Full Length PARG (setting [3]).

For the compound `CN(C)C(=O)Cn1c(=O)c2cc(S(=O)(=O)NC3(C)CC3)ccc2n(C)c1=O` [Example 476, N,N-Dimethyl-2-[1-methyl-6-[(1-methylcyclopropyl)sulfamoyl]-2,4-dioxo-quinazolin-3-yl]acetamide], the IC50 worked out at 1340 nM in the experiment with PARG in HeLa cell line (setting [1]) and 3710 nM on Human Full Length PARG (read-out: PARG Biochem IC50).

`Cc1cc(Cn2c(=O)c3cc(S(=O)(=O)NC4(C)CC4)ccc3n(CC3CCOCC3)c2=O)on1` [Example 321]: the IC50 with PARG in HeLa cell line (setting [2]) is 195 nM; at Human Full Length PARG (setting [3]) it was 138 nM.

`Cn1cc(Cn2c(=O)c3cc(S(=O)(=O)NC4(CF)CC4)ccc3n(CC3CC3)c2=O)cn1` [Example 417, 1-(Cyclopropylmethyl)-N-[1-(fluoromethyl)cyclopropyl]-3-[(1-methylpyrazol-4-yl)methyl]-2,4-dioxo-quinazoline-6-sulfonamide]: the IC50 came to 42 nM with PARG in HeLa cell line (setting [1]) and 40 nM at Human Full Length PARG (read-out: PARG Biochem IC50).

Take `Cc1cc(Cn2c(=O)c3cc(S(=O)(=O)NC4(C)CC4)ccc3n(CC3CCCO3)c2=O)on1` (stereo not shown) [Example 267]: the IC50 with PARG in HeLa cell line (setting [4]) is 248 nM; on Human Full Length PARG (setting [3]), 234 nM.

Turning to `Cc1cc(Cn2c(=O)c3cc(S(=O)(=O)NC4(C)CC4)ccc3n(CCF)c2=O)on1` [Example 411, 1-(2-Fluoroethyl)-N-(1-methylcyclopropyl)-3-[(3-methylisoxazol-5-yl)methyl]-2,4-dioxo-quinazoline-6-sulfonamide], the IC50 came to 104 nM with PARG in HeLa cell line (setting [1]) and 409 nM at Human Full Length PARG (read-out: PARG Biochem IC50).

For `Cn1cc(Cn2c(=O)c3cc(S(=O)(=O)NC4(C)CC4)ccc3n(CC3CCCC3)c2=O)cn1` [Example 279], the results for the IC50 with PARG in HeLa cell line (setting [2]) and on Human Full Length PARG (setting [3]) were 51 nM and 168 nM, respectively.

Turning to `Cn1cc(Cn2c(=O)c3cc(S(=O)(=O)NC4(C)CC4)ccc3n(CC3CCSCC3)c2=O)cn1` [Example 380], the IC50 with PARG in HeLa cell line (setting [2]) was 90 nM; at Human Full Length PARG (setting [3]) it was 59 nM.

In the case of `Cc1cc(Cn2c(=O)c3cc(S(=O)(=O)NC4(C)CC4)ccc3n(Cc3noc(C)n3)c2=O)on1` [Example 243], the IC50 in the experiment on PARG in HeLa cell line (setting [2]) was 221 nM; at Human Full Length PARG (setting [3]) it was 312 nM.

With `Cn1cc(Cn2c(=O)c3cc(S(=O)(=O)NC4(C#N)CC4)ccc3n(CC3(C)COC3)c2=O)cn1` [Example 376], the values for the IC50 with PARG in HeLa cell line (setting [2]) and at Human Full Length PARG (setting [3]) were 14300 nM and 124 nM, respectively.

For `Cc1cc(Cn2c(=O)c3cc(S(=O)(=O)NC4(C)CC4)ccc3n(CC(C)(C)C#N)c2=O)on1` [Example 452, 1-(2-Cyano-2-methyl-propyl)-N-(1-methylcyclopropyl)-3-[(3-methylisoxazol-5-yl)methyl]-2,4-dioxo-quinazoline-6-sulfonamide], the IC50 in the experiment with PARG in HeLa cell line (setting [1]) amounted to 280 nM; on Human Full Length PARG (read-out: PARG Biochem IC50) it was 202 nM.

As to `Cc1cc(Cn2c(=O)c3cc(S(=O)(=O)NC4(C)CC4)ccc3n(CC3CCO3)c2=O)on1` (stereo not shown) [Example 349], the IC50 in the experiment on PARG in HeLa cell line (setting [2]) worked out at 632 nM; on Human Full Length PARG (setting [3]), 252 nM.

As for `C#CCn1c(=O)n(CC#N)c(=O)c2cc(S(=O)(=O)NC3(C)CC3)ccc21` [Example 194], the results for the IC50 with PARG in HeLa cell line (setting [4]) and at Human Full Length PARG (setting [3]) were 273 nM and 245 nM, respectively.

As for `Cn1cc(Cn2c(=O)c3cc(S(=O)(=O)NC4(C#N)CC4)ccc3n(Cc3ccc(F)cc3)c2=O)cn1` [Example 358], the IC50 amounted to 346 nM in the experiment with PARG in HeLa cell line (setting [2]) and 59 nM on Human Full Length PARG (setting [3]).

With `CCOCCn1c(=O)n(Cc2cnn(C)c2)c(=O)c2cc(S(=O)(=O)NC3(CF)CC3)ccc21` [Example 612], the IC50 in the experiment with PARG in HeLa cell line (setting [1]) turned out to be 178 nM; on Human Full Length PARG (read-out: PARG Biochem IC50) it was 194 nM.

In the case of `Cn1cc(Cn2c(=O)c3cc(S(=O)(=O)NC4(C)CC4)ccc3n(CC3CCCCO3)c2=O)cn1` (stereo not shown) [Example 257], the IC50 turned out to be 98 nM in the experiment on PARG in HeLa cell line (setting [2]) and 103 nM at Human Full Length PARG (setting [3]).

`Cc1ncc(Cn2c(=O)c3cc(S(=O)(=O)NC4(C#N)CC4)ccc3n(Cc3cnn(C)c3)c2=O)s1` [Example 457, N-(1-Cyanocyclopropyl)-1-[(1-methylpyrazol-4-yl)methyl]-3-[(2-methylthiazol-5-yl)methyl]-2,4-dioxo-quinazoline-6-sulfonamide]: the IC50 in the experiment with PARG in HeLa cell line (setting [1]) was 494 nM; at Human Full Length PARG (read-out: PARG Biochem IC50), 42 nM.

Take `Cc1ccc(Cn2c(=O)n(Cc3cnn(C)c3)c(=O)c3cc(S(=O)(=O)NC4(CF)CC4)ccc32)nc1` [Example 537, N-[1-(Fluoromethyl)cyclopropyl]-3-[(1-methylpyrazol-4-yl)methyl]-1-[(5-methyl-2-pyridyl)methyl]-2,4-dioxo-quinazoline-6-sulfonamide]: the IC50 with PARG in HeLa cell line (setting [1]) turned out to be 181 nM; on Human Full Length PARG (read-out: PARG Biochem IC50) it was 189 nM.

On to `Cc1cc(Cn2c(=O)c3cc(S(=O)(=O)NC4(CF)CC4)ccc3n(CC#N)c2=O)on1` [Example 523, 1-(Cyanomethyl)-N-[1-(fluoromethyl)cyclopropyl]-3-[(3-methylisoxazol-5-yl)methyl]-2,4-dioxo-quinazoline-6-sulfonamide], for which the IC50 amounted to 571 nM with PARG in HeLa cell line (setting [1]) and 411 nM at Human Full Length PARG (read-out: PARG Biochem IC50).

As to `C#CCn1c(=O)n(Cc2c(C)noc2C)c(=O)c2cc(S(=O)(=O)NC3(C)CC3)ccc21` [Example 159], the results for the IC50 in the experiment on PARG in HeLa cell line (setting [2]) and at Human Full Length PARG (setting [3]) were 153 nM and 109 nM, respectively.

For `Cn1cc(Cn2c(=O)c3cc(S(=O)(=O)NC4(C)CC4)ccc3n(CCC(N)=O)c2=O)cn1` [Example 273], the 50% inhibitory concentration (IC50) in the experiment on PARG in HeLa cell line (setting [2]) was 14500 nM; at Human Full Length PARG (setting [3]), 291 nM.

For `Cn1c(=O)n(CC2COC2)c(=O)c2cc(S(=O)(=O)NC3(C)CC3)ccc21` [Example 481, 1-Methyl-N-(1-methylcyclopropyl)-3-(oxetan-3-ylmethyl)-2,4-dioxo-quinazoline-6-sulfonamide], the IC50 with PARG in HeLa cell line (setting [1]) was found to be 2840 nM; at Human Full Length PARG (read-out: PARG Biochem IC50), 7000 nM.
